Each cell line was assayed with N[C@@H]1CCCN(c2c(/C=C3\SC(=O)NC3=O)cccc2-c2ccccc2)C1 [AZD1208] + CS(=O)(=O)CCNCc1ccc(-c2ccc3ncnc(Nc4ccc(OCc5cccc(F)c5)c(Cl)c4)c3c2)o1 [Lapatinib] (partner 2 µM) (assay: relative viability (nuclei count vs DMSO), 5 days (fraction); higher = more cells survive). Details: first compound 8 µM.
In short: (§1)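 A single step with final 0.05% Triton X-100, 1% formaldehyde and 1 ug/ml Hoechst fixed the cells and stained nuclei 5 days after treatment. Lung cancer cell lines in 1536-well plates had been treated by pin tool the day after seeding with one drug alone or a fixed anchor-drug dose plus five library-drug doses (not always all listed) in √10 steps, and nuclei were counted on 4× images. Relative viability is the ratio of nuclei in treated wells to nuclei in vehicle wells, taken as the median of duplicate plates.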
With BEN the relative viability was 0.437. With HARA the relative viability was 0.594. In the case of HCC-78, the relative viability is reported as 0.966. With LCLC-97TM1 the relative viability was 0.546. Work on NCI-H2023 yielded a relative viability of 0.635. A-427 showed a relative viability of 0.815. NCI-H460 was tested, and the relative viability was 0.964. In the case of NCI-H727, the relative viability is reported as 0.59. Work on NCI-H1734 yielded a relative viability of 0.627. NCI-H520 showed a relative viability of 0.629. NCI-H2405 showed a relative viability of 0.841. With SW 1573 the relative viability was 1.05. NCI-H1395 was tested, and the relative viability was 0.812. With 201T the relative viability was 0.913. Cell Line NCI-H1915 has a relative viability of 0.977. HCC-827 gave a relative viability of 0.226. LXF-289 showed a relative viability of 0.868.

These cell lines were tested with CN1CCN(CC1)C2=CC(=C(C=C2)NC3=NC(=C(S3)C(=O)C4=C(C=CC=C4Cl)Cl)N)OC [XMD14-99] + CS(=O)(=O)N1CCN(Cc2cc3nc(-c4cccc5[nH]ncc45)nc(N4CCOCC4)c3s2)CC1 [Pictilisib] (partner 1 µM) in the same assay as above. Details: first compound 0.08 µM.
In short: as §1
Calu-6 gave a relative viability of 0.881. HCC-366 was tested, and the relative viability was 0.137. NCI-H1666 showed a relative viability of 0.449. Work on NCI-H647 yielded a relative viability of 0.421. Work on LK-2 yielded a relative viability of 0.592. NCI-H2126 was tested, and the relative viability was 0.5. Work on SK-MES-1 yielded a relative viability of 0.407. H3255 gave a relative viability of 0.451. COR-L23 showed a relative viability of 0.676. COR-L 105 was tested, and the relative viability was 0.363. For IA-LM, the relative viability was 0.34. LOU-NH91 gave a relative viability of 0.586. For NCI-H2170, the relative viability was 0.311. NCI-H3122 showed a relative viability of 0.563. HOP-62 gave a relative viability of 0.917. Work on HCC-44 yielded a relative viability of 0.6. With A549 the relative viability was 0.397. For LU99A, the relative viability was 0.257. Work on BEN yielded a relative viability of 0.554. HARA showed a relative viability of 0.35. HCC-78 gave a relative viability of 0.221. For LCLC-97TM1, the relative viability was 0.165. NCI-H2023 showed a relative viability of 0.238. A-427 gave a relative viability of 0.694. In the case of NCI-H460, the relative viability is reported as 0.335. For NCI-H727, the relative viability was 0.551. With NCI-H1734 the relative viability was 0.436. For NCI-H520, the relative viability was 0.254. For NCI-H2405, the relative viability was 0.39. SW 1573 gave a relative viability of 0.434. In the case of NCI-H1395, the relative viability is reported as 0.626. Work on 201T yielded a relative viability of 0.7. For NCI-H1915, the relative viability was 0.927. In the case of HCC-827, the relative viability is reported as 1.1. LXF-289 showed a relative viability of 0.699.

Same assay, conditions: first compound 0.8 µM
Cell Line Calu-6 has a relative viability of 0.824. HCC-366 was tested, and the relative viability was 0.143. For NCI-H1666, the relative viability was 0.448. NCI-H647 showed a relative viability of 0.412. LK-2 gave a relative viability of 0.506. For NCI-H2126, the relative viability was 0.527. For SK-MES-1, the relative viability was 0.327. For H3255, the relative viability was 0.39. COR-L23 was tested, and the relative viability was 0.748. COR-L 105 was tested, and the relative viability was 0.374. Cell Line IA-LM has a relative viability of 0.256. LOU-NH91 was tested, and the relative viability was 0.614. In the case of NCI-H2170, the relative viability is reported as 0.355. Work on NCI-H3122 yielded a relative viability of 0.474. Work on HOP-62 yielded a relative viability of 0.842. HCC-44 was tested, and the relative viability was 0.655. With A549 the relative viability was 0.545. With LU99A the relative viability was 0.304. BEN was tested, and the relative viability was 0.523. In the case of HARA, the relative viability is reported as 0.382. Work on HCC-78 yielded a relative viability of 0.224. LCLC-97TM1 showed a relative viability of 0.217. In the case of NCI-H2023, the relative viability is reported as 0.247. Work on A-427 yielded a relative viability of 0.784. With NCI-H460 the relative viability was 0.378. For NCI-H727, the relative viability was 0.403. NCI-H1734 showed a relative viability of 0.447. NCI-H520 was tested, and the relative viability was 0.266. With NCI-H2405 the relative viability was 0.414. SW 1573 was tested, and the relative viability was 0.531. NCI-H1395 gave a relative viability of 0.67. Cell Line 201T has a relative viability of 0.666. NCI-H1915 was tested, and the relative viability was 0.934. HCC-827 gave a relative viability of 0.895. LXF-289 showed a relative viability of 0.824.

Same assay, conditions: first compound 2.53 µM
Calu-6 showed a relative viability of 0.785. HCC-366 gave a relative viability of 0.156. With NCI-H1666 the relative viability was 0.403. NCI-H647 gave a relative viability of 0.472. LK-2 was tested, and the relative viability was 0.517. With NCI-H2126 the relative viability was 0.508. With SK-MES-1 the relative viability was 0.349. H3255 was tested, and the relative viability was 0.403. Cell Line COR-L23 has a relative viability of 0.68. Work on COR-L 105 yielded a relative viability of 0.34. IA-LM was tested, and the relative viability was 0.157. With LOU-NH91 the relative viability was 0.516. NCI-H2170 was tested, and the relative viability was 0.273. NCI-H3122 gave a relative viability of 0.446. HOP-62 was tested, and the relative viability was 0.808. Work on HCC-44 yielded a relative viability of 0.568. A549 showed a relative viability of 0.505. In the case of LU99A, the relative viability is reported as 0.267. With BEN the relative viability was 0.641. HARA was tested, and the relative viability was 0.222. For HCC-78, the relative viability was 0.2. With LCLC-97TM1 the relative viability was 0.17. NCI-H2023 showed a relative viability of 0.26. Cell Line A-427 has a relative viability of 0.607. NCI-H460 showed a relative viability of 0.345. NCI-H727 gave a relative viability of 0.321. NCI-H1734 gave a relative viability of 0.513. NCI-H520 gave a relative viability of 0.277. In the case of NCI-H2405, the relative viability is reported as 0.457. SW 1573 showed a relative viability of 0.496. NCI-H1395 gave a relative viability of 0.585. With 201T the relative viability was 0.658. Work on NCI-H1915 yielded a relative viability of 0.902. HCC-827 showed a relative viability of 0.917. LXF-289 gave a relative viability of 0.753.

Same assay, conditions: first compound 8 µM
Calu-6 showed a relative viability of 0.57. For HCC-366, the relative viability was 0.149. In the case of NCI-H1666, the relative viability is reported as 0.343. Work on NCI-H647 yielded a relative viability of 0.379. With LK-2 the relative viability was 0.465. For NCI-H2126, the relative viability was 0.473. In the case of SK-MES-1, the relative viability is reported as 0.247. H3255 was tested, and the relative viability was 0.302. Cell Line COR-L23 has a relative viability of 0.414. With COR-L 105 the relative viability was 0.357. For IA-LM, the relative viability was 0.191. With LOU-NH91 the relative viability was 0.545. With NCI-H2170 the relative viability was 0.28. Cell Line NCI-H3122 has a relative viability of 0.326. With HOP-62 the relative viability was 0.646. Work on HCC-44 yielded a relative viability of 0.626. A549 gave a relative viability of 0.348. In the case of LU99A, the relative viability is reported as 0.262. BEN showed a relative viability of 0.442. HARA was tested, and the relative viability was 0.298. For HCC-78, the relative viability was 0.191. Cell Line LCLC-97TM1 has a relative viability of 0.172. In the case of NCI-H2023, the relative viability is reported as 0.157. Work on A-427 yielded a relative viability of 0.448. For NCI-H460, the relative viability was 0.254. For NCI-H727, the relative viability was 0.276. With NCI-H1734 the relative viability was 0.389. Work on NCI-H520 yielded a relative viability of 0.266. For NCI-H2405, the relative viability was 0.248. Work on SW 1573 yielded a relative viability of 0.547. NCI-H1395 was tested, and the relative viability was 0.535. With 201T the relative viability was 0.619. NCI-H1915 was tested, and the relative viability was 0.595. In the case of HCC-827, the relative viability is reported as 0.998. Cell Line LXF-289 has a relative viability of 0.597.
